The test system of data set [1] is Mtu H37Rv (ATCC 27294). In words: MIC testing, Microplate Alamar Blue Assay. Format: cell-based. The conditions noted are these: Mycobacterium tuberculosis.
Data set [2] has as its system Mtu H37Rv (ATCC 27294). Put plainly: Minimum bactericidal concentration (MBC), plating on 7H10 agar. Format: cell-based. The conditions noted are these: Mycobacterium tuberculosis; concentration giving less than 50 colonies.
The subject of data set [3] is Mtu in bone marrow derived macrophages from BALB/c mice. In words: Bone marrow derived macrophages (BMDM) intracellular infection model. Format: cell-based, Mycobacterium tuberculosis. To be noted: for BMDM (log Redn @ 8 μg/mL): 10 days drug exposure, CFU.
Data set [4] concerns Mtu (tubercle bacilli) lung infection. In words: In vivo dose-response, aerosol infection model, 4 wk efficacy. The conditions noted are these: BALB/c mice, oral once daily, 6 days a week for 4 weeks.
The nature of data set [5]: Pharmacokinetic parameters in mouse. It is filed as in vivo, BALB/c mice. On the procedure: BALB/c mice (8-10 week old) were dosed with the compound in an appropriate vehicle at specified doses as a single dose at a dose volume of 10 mL/Kg. The dose was administered either orally or parentally. Blood samples were collected at various time points ranging from 0.08 h to 50 h post dosing and plasma harvested by acceptable methods like precipitation or extraction. The concentration of the compound in plasma was determined by standard analytical instruments like HPLC and/or LC-MS.
(§1) PK analyses of the plasma concentration-time relationships were performed with WinNonLin software (or any other suitable software program). A noncompartmental analysis program was used to calculate the PK parameters, such as the maximum concentration of drug in plasma (Cmax), time to Cmax(tmax), elimination rate constant, elimination half-life, and AUC from time zero to infinity (AUC0-inf)
(§2) The compounds were dosed to animals at various doses (not exceeding 25 mg/kg) and the concentration of the compound at various time points was estimated.

Data set [6] is described as follows: Pharmacokinetic parameters in rat. It is filed as in vivo. The conditions noted are these: plasma; Rat (20-25 mg/kg). The protocol:
as §1, §2

A short description of data set [7]: Pharmacokinetic parameters in dog. Format: in vivo. To be noted: plasma; Dog (12.5-15 mg/kg). On the procedure:
as §1, §2

Data set [8] is described as follows: in vitro. To be noted: mouse.
For data set [9] the following is noted: cited from earlier work.
The conditions of data set [10]: compared with Linezolid; cited from earlier work.
The conditions of data set [11]: cited from earlier work. The source holds these as a separate data set.
Data set [12] relates to M. tuberculosis. To be noted: given orally or parenterally to experimental animals; cited from earlier work.
The conditions of data set [13]: cited from earlier work. This is another data set of the same source.
Data set [14] deals with mycobacteria. The conditions noted are these: cited from earlier work.
The nature of data set [15]: PPB (fraction free), mouse. To be noted: plasma.
The subject of data set [16] is slow growing mycobacteria. The conditions noted are these: cited from earlier work.
Setting [17] is: BALB/c, plasma, Mouse (10 mg/kg).
Where [18] appears, read: mouse, at the minimum effective dose.

≈ marks a conversion by molar mass, not a printed value.

As usually defined, the MIC is the least concentration at which growth counts as inhibited. High values mean weaker potency, low ones greater potency. In general, MBC refers to the lowest tested concentration that kills the bacteria rather than only halting them. A lower MBC goes with greater bactericidal potency. A word on the half-life: it is the time in which the quantity being followed falls by half. Broadly, the fraction unbound is the share of the substance not bound to proteins or other matrix. A higher fraction unbound goes with much free substance.

As to `O=C([C@@H](O)CO)N1CC=C(c2c(F)cc(N3C[C@H](COc4ccon4)OC3=O)cc2F)CC1` [AZD2563, (5R)-3-[4-[1-[(2S)-2,3-dihydroxypropanoyl]-3,6-dihydro-2H-pyridin-4-yl]-3,5-difluoro-phenyl]-5-(isoxazol-3-yloxymethyl)oxazolidin-2-one], inhibition of growth in data set [1] (MIC) required 0.5 µg/mL (≈ 1.07 µM). The minimal bactericidal concentration (MBC) in data set [2] came out at 2 µg/mL (≈ 4.3 µM). For the same compound, the “BMDM (log Redn @ 8 μg/mL)” value in data set [3] was 1.3 log. Further, in [3] (compared to Linezolid), the “bactericidal activity in the intracellular infection model (BMDM) as compared to Linezolid” value is recorded as “greater bactericidal activity”. Besides, the “Minimum Effective Dose in a 4 wk efficacy model” value in [4] was found to be 125 mg/kg. In addition, the AUC in [5] (BALB/c, mouse, in vivo) turned out to be 150000 ng·h/mL; in [5] (BALB/c, mouse, in vivo, 10 mg/kg), 20300 ng·h/mL. Also, in [5] (BALB/c, mouse, in vivo), the fAUC stood at 27.07. For the same compound, the figures for the half-life in [5] (setting [17]), in [6] and in data set [7] were 78 min, 240 to 360 min and 600 min, respectively. In [5] (setting [18]), this compound registered a fAUC/MIC of 54.14. In [8], this compound displayed a fraction unbound of 0.18.
Turning to `CC(=O)NC[C@H]1CN(c2ccc(-c3ccc(-c4nnnn4C)nc3)c(F)c2)C(=O)O1` [DA-7867], the in vitro efficacy result in data set [9] was “good in vitro”. The in vivo efficacy entry in data set [10] is reported as “better in vivo efficacy than Linezolid”. Also, the “tolerability in rat toxicology studies” value in data set [11] is reported as “poorly tolerated”.
Consider `CC(=O)NC[C@H]1CN(c2ccc(C(C)=O)cc2)C(=O)O1` [DuP-721], for which, in data set [12], the “activity against M. tuberculosis” value is “good activity”. The “toxicity in animal models” value in data set [13] is on record as “lethal toxicity”.
In turn, `CC(=O)NC[C@H]1CN(c2ccc(N3CCOCC3)c(F)c2)C(=O)O1` [Linezolid, N—[(S)-3-(3-Fluoro-4-morpholin-4-yl-phenyl)-2-oxo-oxazolidin-5-ylmethyl]-acetamide] returned an MIC in data set [1] of 0.5 µg/mL (≈ 1.48 µM). In data set [2], this compound registered a minimum bactericidal concentration (MBC) of 4 µg/mL (≈ 11.9 µM). The “BMDM (log Redn @ 8 μg/mL)” value in [3] is −0.05 log. Besides, the “Minimum Effective Dose in a 4 wk efficacy model” value in data set [4] is reported as 250 mg/kg. In addition, the AUC amounted to 279000 ng·h/mL in data set [5] (BALB/c, plasma, oral, mouse, at the minimum effective dose, read-out: AUC); 7300 ng·h/mL in data set [5] (BALB/c, plasma, Mouse (10 mg/kg), read-out: AUC); 41600 ng·h/mL in data set [6]; 42000 ng·h/mL in [7]. Moreover, the values for the half-life in [5] (setting [17]), in [6] and in [7] were 60 min, 78 to 180 min and 240 min, respectively. Moreover, the fAUC/MIC in [5] (setting [18]) amounted to 390.24. The compound further displayed a fAUC in data set [5] (mouse, at the minimum effective dose, AUC x fraction free) of 195.12. For the same compound, the “antimycobacterial activities in the murine model” value in data set [14] is “promising antimycobacterial activities”. Further, in data set [15], the fraction unbound turned out to be 0.7.
On to `CC(=O)NC[C@H]1CN(c2ccc(N3CCSCC3)c(F)c2)C(=O)O1` [PNU-100480], for which the “antimycobacterial activities in the murine model” value in [14] is “promising antimycobacterial activities”.
For the compound `CC(=O)NC[C@H]1CN(c2ccc(N3CCN(Cc4ccc([N+](=O)[O-])o4)CC3)c(F)c2)C(=O)O1` [RBx 7644], the antimycobacterial activity entry in data set [16] is listed as “modest antimycobacterial activity”.

The values above are taken from patent US20120035219A1, “Compound for the Treatment of Tuberculosis” (ASTRAZENECA AB, priority 2009, published 2012).
